tested on: Hair follicles (HF); assay: Hair follicle (HF) explant growth assay; assay type: cell-based, human; conditions: HF elongation after 7-8 days; 20 ng/ml of each growth factor, hypoxanthine 2 μM; mean of 6-8 independent experiments
Method: Hair follicles (HF) were extracted from the occipital area of 6-8 individuals with hair loss. The HFs were processed to equivalent lengths and cultured in William's E medium supplemented with 100 units/ml penicillin G, 100 μg/ml streptomycin, 0.25 μg/ml amphotericin B, […], 1 ng/ml hydrocortisone; basic medium or control medium or basic medium supplemented with 20 ng/ml of each of IGF-1, FGF-2, PDGF, Wnt-3A (Wnt), Noggin (Nog), Ephrin A3 (Eph), SHH and BMP-6 as well as hypoxanthine (Hyx) at 2 μM final concentration. The “GF10 cocktail” or “GF10” includes all nine growth factors and hypoxanthine while the “GF7 cocktail” or “GF7” contains six growth factors (all growth factors of GF10 except for FGF-10, Eph and SHH) and hypoxanthine. Growth promotion was measured as elongation of the HF at the end of 7-8 days. All growth factors and hypoxanthine promoted growth individually and in combination (FIG. 1 and Table 1).

Question: Which “Increase in growth (% control) Mean” value does the source give for “IGF1: insulin-like growth factors-1, cellular growth factor” here?
Answer: 39.31 % control

Question: For `O=c1[nH]cnc2nc[nH]c12` [Hypx, hypoxanthine], which “Increase in growth (% control) Mean” value is on record?
Answer: 104.1618 % control

Question: For FGF2: fibroblast growth factor-2, which “Increase in growth (% control) Mean” value is on record?
Answer: 146.474 % control

Question: How did the “Increase in growth (% control) Mean” value turn out when PDGF: platelet-derived growth factor-AA was run?
Answer: 69.56 % control

Reference: patent publication US20110306546A1, “COMPOSITIONS FOR INCREASING HAIR GROWTH AND DECREASING HAIR LOSS” (ALVI ARMANI GENOMICS INC., priority 2010, published 2011)
